Assay results: US20150291610A1, “C20' Urea Derivatives of Vinca Alkaloids” (THE SCRIPPS RESEARCH INSTITUTE, priority 2012, published 2015)
Where two headings read alike, the source gives them in different places.

Columns and labels:
[1] = tested on: PA-1 (Ovary, overexpression of AIB1); test: 15-cell line panel: PA-1; assay type: cell-based, human; conditions: independent laboratory panel
[2] = tested on: ZR-75-1 (Breast, overexpression of her2); test: 15-cell line panel: ZR-75-1; assay type: cell-based, human; conditions: independent laboratory panel
NCI-H520 (Lung) = test: 15-cell line panel: NCI-H520; assay type: cell-based, human; conditions: independent laboratory panel
[3] = tested on: L1210 (mouse lymphocytic leukemia) cells; test: Cell growth inhibition assay, L1210; assay type: cell-based; conditions: L1210 murine leukemia cell line; avg of 4-16 determinations
Procedure: (§1) A population of cells (>1×10^6 cells/mL as determined with a hemocytometer) was diluted with an appropriate amount of Dulbecco-modified Eagle Medium (DMEM, Gibco) containing 10% fetal bovine serum (FBS, Gibco) to a final concentration of 30,000 cells/mL.
(§2) To each well of a 96-well plate (Corning Costar), 100 μL of the cell-media solution was added with a multichannel pipette. The cultures were incubated at 37° C. in an atmosphere of 5% CO2 and 95% humidified air for 24 hours. The test compounds were added to the plate as follows: test substances were diluted in DMSO to a concentration of 1 mM and 10-fold serial dilutions were performed on a separate 96-well plate. Fresh culture medium (100 μL) was added to each well of cells to constitute 200 μL of medium per well followed by 2 μL of each test agent. Compounds were tested in duplicate (n=2-8 times) at six concentrations between 0-1,000 nM or 0-10,000 nM. Following addition, cultures were incubated for an additional 72 hours.
(§3) The plates were incubated at 37° C. for either 5 minutes (L1210) or 15 minutes (HCT116 and HCT116/VM46).

[4] = tested on: MDA-MB-468 (Breast, triple negative, amplified EGFR); test: 15-cell line panel: MDA-MB-468; assay type: cell-based, human; conditions: independent laboratory panel
[5] = tested on: HCT116/VM46 (vinblastine-resistant strain of HCT116, Pgp over-expression) cells; test: Cell growth inhibition assay, HCT116/VM46
Procedure: as §1, §2, §3

[6] = tested on: MCF-7 (Breast, overexpression of her2/neu); test: 15-cell line panel: MCF-7; assay type: cell-based, human; conditions: independent laboratory panel; > = highest concentration tested
[7] = tested on: LS174T (Colon, high levels of MUC2 mRNA); test: 15-cell line panel: LS174T; assay type: cell-based, human; conditions: independent laboratory panel
LNCaP-FGC (Prostate) = test: 15-cell line panel: LNCaP-FGC; assay type: cell-based, human; conditions: independent laboratory panel
[8] = tested on: HCC1143 (Breast, triple negative); test: 15-cell line panel: HCC1143; assay type: cell-based, human; conditions: independent laboratory panel
[9] = tested on: AU565 (Breast, overexpression of her2/neu); test: 15-cell line panel, independent laboratory: AU565; assay type: cell-based, human
[10] = tested on: T47D (Breast, mutant p53); test: 15-cell line panel: T47D; assay type: cell-based, human; conditions: independent laboratory panel
[11] = tested on: SW403 (Colon, KRAS^G12V mutation); test: 15-cell line panel: SW403; assay type: cell-based, human; conditions: independent laboratory panel
[12] = tested on: KPL4 (Breast, overexpression of erbB2); test: 15-cell line panel: KPL4; assay type: cell-based, human; conditions: independent laboratory panel
[13] = tested on: HCT116/VM46 (vinblastine-resistant strain of HCT116, Pgp over-expression) cells; conditions: read-out: IC50 (nM) HCT116/VM46; reported in Leggans et al., Org. Lett. 2012; cited from earlier work
[14] = tested on: L1210 (mouse lymphocytic leukemia) cells; conditions: reported in Leggans et al., Org. Lett. 2012; cited from earlier work
[15] = tested on: HCT116/VM46 (Colon, vinblastine resistant); test: 15-cell line panel: HCT116/VM46; assay type: cell-based, human; conditions: independent laboratory panel; for IC50: > = highest concentration tested
[16] = tested on: HCC70 (Breast, overexpression of p53); test: 15-cell line panel: HCC70; assay type: cell-based, human; conditions: independent laboratory panel
porcine tubulin = molecular target: T1, porcine tubulin (Sus scrofa, UniProt P02550+P02554); assay type: binding; conditions: for tubulin binding affinity compared with vinblastine: in words
T1 construct: purified porcine tubulin; purchased Cytoskeleton, Inc
Excerpt: [Owellen et al., Biochem. Pharmacol. 1977 26:1213-1219.] […] Millipore Steriflip® filter units were used to wash the filter paper with buffer under mild suction.

[17] = tested on: HCT116 (human colorectal carcinoma) cells; conditions: reported in Leggans et al., Org. Lett. 2012; cited from earlier work
[18] = tested on: HCT116 (human colorectal carcinoma) cells; test: Cell growth inhibition assay, HCT116; assay type: cell-based
Procedure: as §1, §2, §3

[19] = tested on: human tumor 15-cell line panel; test: Human tumor 15-cell line panel, whole panel (averages, ranges); assay type: cell-based; conditions: for average IC50 value in human tumor cell line panel: comparative average
HCT116 (Colon) = test: 15-cell line panel: HCT116; assay type: cell-based, human; conditions: independent laboratory panel
[20] = read-out: IC50 (nM) HCT116/VM46, resistant human colon cancer cell line, Pgp over-expression
[21] = HCT116 human colon cancer cell line, avg of 4-16 determinations, read-out: IC50 (nM) HCT116
[22] = ligand vs [^3H]VBL (1:1), normalized to VLB + [^3H]VLB = 50.0%

T1 sequence (P02550 whole entry): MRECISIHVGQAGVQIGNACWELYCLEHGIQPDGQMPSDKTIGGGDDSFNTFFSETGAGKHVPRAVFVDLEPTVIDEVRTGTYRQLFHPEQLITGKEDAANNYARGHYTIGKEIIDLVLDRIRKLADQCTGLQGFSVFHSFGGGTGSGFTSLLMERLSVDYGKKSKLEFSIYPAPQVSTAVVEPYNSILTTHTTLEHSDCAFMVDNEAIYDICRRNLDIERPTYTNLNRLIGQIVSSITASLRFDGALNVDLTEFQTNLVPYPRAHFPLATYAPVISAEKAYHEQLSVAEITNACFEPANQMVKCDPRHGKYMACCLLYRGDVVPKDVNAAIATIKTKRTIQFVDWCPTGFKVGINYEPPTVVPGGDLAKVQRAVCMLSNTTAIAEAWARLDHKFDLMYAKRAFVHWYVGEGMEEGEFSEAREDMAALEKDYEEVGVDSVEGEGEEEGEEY
T1 sequence (P02554 whole entry): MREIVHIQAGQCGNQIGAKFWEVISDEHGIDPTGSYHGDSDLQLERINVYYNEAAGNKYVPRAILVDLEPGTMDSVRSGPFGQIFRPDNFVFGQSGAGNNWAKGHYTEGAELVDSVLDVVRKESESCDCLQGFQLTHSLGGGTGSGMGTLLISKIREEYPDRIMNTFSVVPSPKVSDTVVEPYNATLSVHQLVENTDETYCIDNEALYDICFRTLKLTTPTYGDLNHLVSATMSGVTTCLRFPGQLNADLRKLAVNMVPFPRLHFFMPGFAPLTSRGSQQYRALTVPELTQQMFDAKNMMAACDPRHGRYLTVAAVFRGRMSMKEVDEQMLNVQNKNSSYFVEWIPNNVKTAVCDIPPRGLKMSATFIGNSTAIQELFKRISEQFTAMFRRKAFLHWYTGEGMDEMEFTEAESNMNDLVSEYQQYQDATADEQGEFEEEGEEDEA

Row | Compound | IC50 [1] | IC50 [2] | IC50 (NCI-H520 (Lung)) | IC50 [3] | IC50 [4] | IC50 [5, 20] | IC50 [6] | IC50 [7] | IC50 [8] | IC50 [9] | IC50 [10] | IC50 [11] | IC50 [12] | IC50 [13] | IC50 [14] | IC50 [15] | IC50 [16] | IC50 [17] | IC50 [18, 21] | tubulin binding affinity compared with vinblastine (porcine tubulin) | other results
1 | CC[C@]1(O)C[C@@H]2CN(CCc3c([nH]c4ccccc34)[C@@](C(=O)OC)(c3cc4c(cc3OC)N(C)[C@H]3[C@@](O)(C(=O)OC)[C@H](OC(C)=O)[C@]5(CC)C=CCN6CC[C@]43[C@@H]65)C2)C1 [Vinblastine (1), Vinblastine, reference compound] | 4.6 nM | 8 nM | 4.5 nM | 6 nM | 4.6 nM | 600 nM | > 110 nM | 19.6 nM | 3.8 nM | 4 nM | 5 nM | 7.9 nM | 2.9 nM | 600 nM | 6 nM | > 110 nM | 3.5 nM |  |  |  | IC50 (LNCaP-FGC (Prostate); read-out: IC50 (nM) LNCaP-FGC): 5.1 nM; % ^3H-vinblastine remaining bound (porcine tubulin): 50.0%
2 | CC[C@]1(N)C[C@H]2CN(CCc3c([nH]c4ccccc34)[C@@](C(=O)OC)(c3cc4c(cc3OC)N(C)[C@H]3[C@@](O)(C(=O)OC)[C@H](OC(C)=O)[C@]5(CC)C=CCN6CC[C@]43[C@@H]65)C2)C1 [Compound 7, 20′-aminovinblastine] |  |  |  |  |  | > 10000 nM |  |  |  |  |  |  |  | > 10000 nM | 640 nM |  |  | 600 nM | 600 nM |  | 
3 | CC[C@]1(NC(N)=O)C[C@@H]2CN(CCc3c([nH]c4ccccc34)[C@@](C(=O)OC)(c3cc4c(cc3OC)N(C)[C@H]3[C@@](O)(C(=O)OC)[C@H](OC(C)=O)[C@]5(CC)C=CCN6CC[C@]43[C@@H]65)C2)C1 [Compound 11, reference compound] |  |  |  | 40 nM |  |  |  |  |  |  |  |  |  | 4400 nM | 40 nM |  |  | 7.5 nM | 7.5 nM |  | IC50 [5]: 4400 nM
4 | CCC1(NC(=O)N(C)C)CC2CN(CCc3c([nH]c4ccccc34)C(C(=O)OC)(c3cc4c(cc3OC)N(C)C3C(O)(C(=O)OC)C(OC(C)=O)C5(CC)C=CCN6CCC43C65)C2)C1 (stereo not shown) [Compound 39] |  |  |  | 5.9 nM |  | 80 nM |  |  |  |  |  |  |  |  |  |  |  |  | 2.8 nM | slightly better affinity than vinblastine | activity difference between sensitive HCT116 and vinblastine-resistant HCT116/VM46 ([5]; HCT116/VM46 vs HCT116): 10 fold; fold more potent than vinblastine, HCT116 ([18]; relative to vinblastine): 3 fold; % ^3H-vinblastine remaining bound (porcine tubulin): 45.1 ± 3.5%
5 | CC[C@]1(NC(=O)N2Cc3ccccc3C2)C[C@@H]2CN(CCc3c([nH]c4ccccc34)[C@@](C(=O)OC)(c3cc4c(cc3OC)N(C)[C@H]3[C@@](O)(C(=O)OC)[C@H](OC(C)=O)[C@]5(CC)C=CCN6CC[C@]43[C@@H]65)C2)C1 [Compound 58] | 0.11 nM | 0.45 nM | 0.1 nM | 0.51 nM | 0.39 nM | 7.5 nM | > 12.5 nM | 0.45 nM | 0.09 nM | 0.11 nM | 0.41 nM | 0.45 nM | 0.04 nM |  |  | 3.5 nM | 0.04 nM |  | 0.6 nM | higher affinity than vinblastine | average enhancement over the activity of vinblastine in panel [19]: 30 fold; average IC50 value in human tumor cell line panel [19]: 0.2 nM; IC50 ([19]; range over cell lines, read-out: IC50 values across the panel): 0.04 to 0.45 nM; IC50 (LNCaP-FGC (Prostate); read-out: IC50 (nM) LNCaP-FGC): 0.24 nM; IC50 (HCT116 (Colon)): 0.16 nM; differential of HCT116/VM46 from sensitive HCT116 in panel [15]: 20 fold; % ^3H-vinblastine remaining bound (porcine tubulin; [22]): 41.2%
6 | CC[C@]1(NC(N)=S)C[C@@H]2CN(CCc3c([nH]c4ccccc34)[C@@](C(=O)OC)(c3cc4c(cc3OC)N(C)[C@H]3[C@@](O)(C(=O)OC)[C@H](OC(C)=O)[C@]5(CC)C=CCN6CC[C@]43[C@@H]65)C2)C1 [Compound 12] |  |  |  |  |  | 2000 nM |  |  |  |  |  |  |  | 2000 nM | 55 nM |  |  | 7.7 nM | 7.7 nM |  | 
7 | CCC1(NC(=O)N2CCc3ccccc3C2)CC2CN(CCc3c([nH]c4ccccc34)C(C(=O)OC)(c3cc4c(cc3OC)N(C)C3C(O)(C(=O)OC)C(OC(C)=O)C5(CC)C=CCN6CCC43C65)C2)C1 (stereo not shown) [Compound 57] | 0.19 nM | 0.52 nM | 0.14 nM | 0.62 nM | 0.12 nM | 8.7 nM | 2.1 nM | 0.3 nM | 0.16 nM | 0.13 nM | 0.55 nM | 1.2 nM | 0.06 nM |  |  | 6.6 nM | 0.13 nM |  | 0.56 nM | higher affinity than vinblastine | average enhancement over the activity of vinblastine in panel [19]: 30 fold; average IC50 value in human tumor cell line panel [19]: 0.2 nM; IC50 (LNCaP-FGC (Prostate); read-out: IC50 LNCaP-FGC): 0.02 nM; IC50 (HCT116 (Colon)): 0.26 nM
8 | CCC1(NC(=O)Nc2ccc(-c3ccccc3)cc2)C[C@H]2CN(CCc3c([nH]c4ccccc34)[C@@](C(=O)OC)(c3cc4c(cc3OC)N(C)[C@H]3C(O)(C(=O)OC)[C@H](OC(C)=O)[C@]5(CC)C=CCN6CC[C@]43[C@@H]65)C2)C1 (stereo partly shown) [Compound 35] |  |  |  |  |  |  |  |  |  |  |  |  |  |  |  |  |  |  |  | affinity matching or even slightly exceeding that of vinblastine | IC50 ([5]; Homo sapiens, HCT-116/VM46, read-out: IC50 (nM) HCT116/VM46): 470 nM; IC50 ([18]; Homo sapiens, HCT-116, read-out: IC50 (nM) HCT116): 6.9 nM; % ^3H-vinblastine remaining bound (porcine tubulin; [22]): 48.5 ± 6.9%
9 | CCC1(NC(=O)NC(=O)C(Cl)(Cl)Cl)CC2CN(CCc3c([nH]c4ccccc34)C(C(=O)OC)(c3cc4c(cc3OC)N(C)C3C(O)(C(=O)OC)C(OC(C)=O)C5(CC)C=CCN6CCC43C65)C2)C1 (stereo not shown) [NHCONHCOCCl3] |  |  |  |  |  |  |  |  |  |  |  |  |  | 1600 nM | 45 nM |  |  | 6 nM |  |  | 
